Experimental findings from patent publication US20210238197A1, “NOVEL OXOQUINOLIZINE COMPOUNDS FOR THE TREATMENT AND PROPHYLAXIS OF BACTERIAL INFECTION” (Hoffmann-La Roche Inc., priority 2018, published 2021) are described below.

Converted amounts (≈) assume the structure as drawn. Where two headings read alike, the source gives them in different places. A value given as a limit tells only on which side of the number the result lay.

Series [1] in a line: Lyophilisation solubility assay (LYSA). The series is classed as physicochemical. The following applies: aqueous buffer, thermodynamic from solid; 0.05 M phosphate buffer, pH 6.5; <1.0 = detection limit. The method, then:
The solubility of compounds of present invention was assessed by LYSA assay. Samples were prepared in duplicate from 10 mM DMSO stock solutions (20 μL) diluted in 30 μL pure DMSO. After evaporation of DMSO with a centrifugal vacuum evaporator, the residue was dissolved in 0.05 M phosphate buffer (150 μL, pH 6.5), which was stirred for one hour and shook for two hours. After one night, the solution was filtered using a microtiter filter plate. Then the filtrate and its 1/10 dilution were analyzed by HPLC-UV. In addition a four-point calibration curve was prepared from the 10 mM stock solutions and used for the solubility determination of the compounds.

Series [2] is described as follows: Cytotoxicity assay (HepG2, CellTiter-Blue). It counts as cell-based. The following applies: human; HepG2 cells, 3 days treatment; >100 = detection limit. As for the experimental part: The cytotoxicity of compounds of present invention was assessed by HepG2 assay. HepG2 cells (ATCC RB-8065™) were seeded into 96-well plates (1.2×10^4 cells per well) and treated with compounds for 3 days, cell viability was measured at day 3 post compound treatment using the CellTiter-Blue® Cell Viability Assay (Promega, Cat. No. G8082). […], of Cell titer blue buffer were added to each well of the cells, which were incubated for 3 hours at 37° C., and the fluorescence value was measured by a plate reader (Molecular Device SpectraMax M2). The CC50 value of each compound is plotted with GraphPad Prism using four parameter logistic equation.

Series [3] has as its system S. aureus (ATCC29213). The series is described as follows: 50% growth inhibitory concentration (IC50) determination assay, S. aureus. The series is classed as cell-based. The following applies: Staphylococcus aureus, ATCC29213; Iso-Sensitest broth, growth by OD 600 nm over 16 h; <0.098 = detection limit. In short, it runs like this:
(§1)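 Compounds two-fold diluted from 50 to 0.097 μM (final) in Iso-Sensitest broth, inoculum ~5×10^5 CFU/mL. Incubation at 35±2 °C with OD600 read every 20 min over 16 h to track growth.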

Series [4] relates to K. pneumoniae (ATCC10031). The series is described as follows: 50% growth inhibitory concentration (IC50) determination assay, K. pneumoniae. It counts as cell-based. The following applies: Klebsiella pneumoniae, ATCC10031; Iso-Sensitest broth, growth by OD 600 nm over 16 h; <0.098 = detection limit. In outline:
as §1

Series [5] concerns A. baumannii (ATCC17978). The series is described as follows: 50% growth inhibitory concentration (IC50) determination assay, A. baumannii. It counts as cell-based. The following applies: Acinetobacter baumannii, ATCC17978; Iso-Sensitest broth, growth by OD 600 nm over 16 h; <0.098 = detection limit. In short, it runs like this:
as §1

Series [6] relates to multiple species and strains. The series is described as follows: microbe, parasite or virus in culture. More on the design: MIC S9 / MIC S7 / MIC S11 / MIC S8 / MIC S10: unit not given beside the values. In short, it runs like this:
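Broth microdilution per CLSI M07-A10 in CAMHB, CAMHB+3% lysed horse blood or HTM. Inoculum was set to OD600 ~0.1, then diluted 1:280 (Gram-positive) or 1:400 (Gram-negative), and plates were incubated 18-24 h at 35±2° C in ambient air. MIC (μg/mL) is the lowest concentration giving no visible growth.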

For `CNc1cc(F)c(F)c2c1[nH]c1ncc(-c3ccc4c(CN5CCCC5)cc(C(=O)O)c(=O)n4c3)c(N3CC[C@H]4CN(C)C[C@H]43)c12` (relative stereo) [Example 2.10, 7-[4-[cis-5-methyl-2,3,3a,4,6,6a-hexahydropyrrolo[2,3-c]pyrrol-1-yl]-5,6-difluoro-8-(methylamino)-9H-pyrido[2,3-b]indol-3-yl]-4-oxo-1-(pyrrolidin-1-ylmethyl)quinolizine-3-carboxylic acid], in series [1], the thermodynamic solubility (in general, solubility found after equilibrating the solid with the medium) was more than 940 µg/mL. The CC50 – broadly, the concentration giving 50% cytotoxicity – at 3 days in series [2] was determined as 89200 nM.

With `CNc1cc(F)cc2c1[nH]c1ncc(-c3ccc4ccc(C(=O)O)c(=O)n4c3)c(N3CC[C@@H]4CN(C)C[C@@H]43)c12` (single isomer, unassigned) [Example 3.02B], the IC50 (as a rule, the point on the concentration scale where inhibition reaches its midpoint) in series [3] was 1280 nM; in series [4], less than 98 nM; in series [5], 483 nM. For the same compound, the solubility (thermodynamic) in series [1] was more than 683 µg/mL.

Regarding `CNc1cc(F)c(C#N)c2c1[nH]c1ncc(-c3ccc4ccc(C(=O)O)c(=O)n4c3)c(N3CC[C@H]4CCN(C)C4C3)c12` (stereo in doubt) [Example 1.17, 7-[4-[cis-1-methyl-3,3a,4,5,7,7a-hexahydro-2H-pyrrolo[2,3-c]pyridin-6-yl]-5-cyano-6-fluoro-8-(methylamino)-9H-pyrido[2,3-b]indol-3-yl]-4-oxo-quinolizine-3-carboxylic acid], the IC50 was 139 nM in series [3], less than 98 nM in series [4] and less than 98 nM in series [5]. This compound also came in with a thermodynamic solubility in series [1] of 12 µg/mL (≈ 21.2 µM). The MIC came out at 0.882 µg/mL (≈ 1.56 µM) in series [6] (Acinetobacter baumannii, ATCC19606, read-out: MIC S1, A. baumannii ATCC 19606); 0.882 µg/mL (≈ 1.56 µM) in series [6] (Acinetobacter baumannii, ATCC51432, read-out: MIC S2, A. baumannii ATCC 51432); 0.882 µg/mL (≈ 1.56 µM) in series [6] (Acinetobacter baumannii, ATCCBAA747, read-out: MIC S3, A. baumannii ATCC BAA-747); 0.166 µg/mL (≈ 0.293 µM) in series [6] (Escherichia coli, ATCC25922, read-out: MIC S11, E. coli ATCC 25922); 0.882 µg/mL (≈ 1.56 µM) in series [6] (Escherichia coli, ATCCBAA2340, read-out: MIC S10, E. coli ATCC BAA-2340); 0.028 µg/mL (≈ 0.0495 µM) in series [6] (Klebsiella pneumoniae, ATCC10031, read-out: MIC S4, K. pneumoniae ATCC 10031). Moreover, the MIC in series [6] (Klebsiella pneumoniae, ATCC700603, read-out: MIC S5, K. pneumoniae ATCC 700603) turned out to be 3.54 µg/mL (≈ 6.25 µM); in series [6] (Klebsiella pneumoniae, ATCCBAA2146, read-out: MIC S6, K. pneumoniae ATCC BAA-2146) it was 3.54 µg/mL (≈ 6.25 µM); in series [6] (Pseudomonas aeruginosa, ATCC27853, read-out: MIC S7, P. aeruginosa ATCC 27853), 0.882 µg/mL (≈ 1.56 µM); in series [6] (Pseudomonas aeruginosa, ATCCBAA2113, read-out: MIC S8, P. aeruginosa ATCC BAA-2113) it was 3.54 µg/mL (≈ 6.25 µM). Further, the “MIC S9” value in series [6] (E. coli ATCC 35218) is listed as 0.882.

As for `CNc1cc(F)cc2c1[nH]c1ncc(-c3ccc4ccc(C(=O)O)c(=O)n4c3)c(N3CCC4(C)CN(C)CC34)c12` (stereo not drawn) [Example 1.10, 7-[4-(3a,5-dimethyl-3,4,6,6a-tetrahydro-2H-pyrrolo[2,3-c]pyrrol-1-yl)-6-fluoro-8-(methylamino)-9H-pyrido[2,3-b]indol-3-yl]-4-oxo-quinolizine-3-carboxylic acid], the IC50 in series [3], in series [4] and in series [5] was less than 98 nM throughout. In addition, the thermodynamic solubility in series [1] is 90 µg/mL (≈ 166 µM).

With `CNc1cc(F)cc2c1[nH]c1ncc(-c3ccc4ccc(C(=O)O)c(=O)n4c3)c(N3CCO[C@H](CN(C)C)C3)c12` [Example 2.07, (R)-7-(4-(2-((dimethylamino)methyl)morpholino)-6-fluoro-8-(methylamino)-9H-pyrido[2,3-b]indol-3-yl)-4-oxo-4H-quinolizine-3-carboxylic acid], the values for the concentration for half-maximal inhibition (IC50) in series [3], in series [4] and in series [5] were 379 nM, less than 98 nM and 242 nM, respectively. In series [1], the thermodynamic solubility is 48 µg/mL (≈ 88.1 µM).

`CNc1cc(F)cc2c1[nH]c1ncc(-c3ccc4ccc(C(=O)O)c(=O)n4c3)c(N3CCO[C@@H](CN(C)C)C3)c12` [Example 2.08, (S)-7-(4-(2-((dimethylamino)methyl)morpholino)-6-fluoro-8-(methylamino)-9H-pyrido[2,3-b]indol-3-yl)-4-oxo-4H-quinolizine-3-carboxylic acid]: the IC50 in series [3] is 433 nM; in series [4] it was less than 98 nM; in series [5], 132 nM. In series [1], this compound gave a solubility (thermodynamic) of 54 µg/mL (≈ 99.2 µM).
